“Also recorded” adds a separate entry of the source.
Key:
[1] = tested on: PR target genes in T47D cells expressing WT PR, SUMO-deficient PR (KR) or empty vector; assay: Gene expression profiling (Illumina HT-12v4) of T47D cell lines treated with progesterone or antiprogestins; format: cell-based, human; conditions: for expression of progesterone-regulated PR target genes: T47D cells expressing SUMO-deficient PR (KR), antiprogestin 10^−7 M alone or plus progesterone 10^−8 M
Protocol: T47D cells stably expressing pIRES-neo3 empty vector, WT or KR PR were serum starved in modified IMEM (Gibco, catalog #A10488) for 1 day, treated with R5020 (10^−8 M) or vehicle control for 6 h before RNA extraction using a RNeasy kit (QIAgen, catalog #74104). Six h of progestin treatment allowed for substantial PR-dependent gene expression as compared to prior studies (Jacobsen et al., 2005; Richer et al., 2002). DNase I treated (QIAgen, catalog #79254) RNA samples from duplicate experiments were prepared for expression analysis using the Illumina HT-12v4 bead chip platform according to manufacture's protocols. Data were analyzed within R software using the Bioconductor (Gentleman et al., 2004) package called lumi where raw intensities were log2 transformed and quantile normalized. Differentially expressed genes were analyzed using the limma package, where empirical Bayes was used to better estimate the variance of the genes. Gene expression data presented contain log2 normalized intensities and biological comparisons presented (e.g. R5020/vehicle) contain log2 fold change with the Benjamini and Hochberg (BH) adjusted P value (Benjamini and Hochberg, 1995). To generate the heat map in FIG. 1C, unsupervised hierarchical clustering of genes was carried out using heatmap. 2 function in the R package gplots. Clustering was performed using Euclidean distance and complete linkage. Rows were scaled to have mean zero and standard deviation equal to one.
Gene expression profiles in T47D cell lines treated with antiprogestins were obtained using identical methods as described above, except for these notable differences. After serum starvation, cells stably expressing empty vector, WT, or KR PR were treated for 6 hours under one of eight possible conditions: (1) ethanol (vehicle control), (2) progesterone (10^−8 M), (3) RU486 (10^−7 M), (4) aglepristone (10^−7 M), (5) onapristone (10^−7 M), (6) RU486 (10^−7 M) plus progesterone (10^−8 M), (7) aglepristone (10^−7 M) plus progesterone (10^−8 M), or (8) onapristone (10^−7 M) plus progesterone (10^−8 M). Gene expression levels were measured, normalized, analyzed, and heat maps were generated using the methods described above.
Raw microarray data from two independent microarray experiments (both performed using the Illumina HT-12v4 platform described above) were combined and normalized together within R software using the Bioconductor (Gentleman et al., 2004) package called lumi where raw intensities were log 2 transformed and quantile normalized.
Sample Sizes & Composition: For the first analysis, two KR cell replicates were used that had been stimulated with R5020 a synthetic progestin in the first experiment and three KR cell replicates that had been stimulated with progesterone in the second experiment. The same was accomplished regarding the corresponding WT cell replicates. Pertaining to the first analysis, therefore, a sample size of n=5 was used for each of the two groups (KR & WT). Regarding the second analysis, we used three KR cell replicates that had been co-treated with progesterone plus onapristone in the second experiment; and we used three WT cell replicates that had been co-treated with progesterone plus onapristone also in the second experiment (n=3 for each of the two groups). Regarding the third analysis, we used three KR cell replicates that had been co-treated with progesterone plus RU486 in the second experiment; and we used three WT cell replicates that had been co-treated with progesterone plus RU486 also in the second experiment (n=3 for each of the two groups). Regarding the fourth analysis, three KR cell replicates was used that had been co-treated with progesterone plus onapristone; and three WT cell replicates were used that had been treated with vehicle control (ethanol) (n=3 for each of the two groups). […]

[2] = tested on: PR target genes (CHN2, RGS2, ACOT6) in BT-474 human breast cancer cells; assay: RT-qPCR of PR target genes in BT-474 cells, with or without MEK inhibitor; format: cell-based
Protocol: For reverse transcription quantitative polymerase chain reaction (RT-qPCR) assays, 5×10^5 cells/well were plated in 6-well dishes, serum starved in modified IMEM for 1 day before treatments (see individual figures). RNA was extracted using TriPure reagent (Roche, catalog #11667157001) and cDNA was created using the Transcriptor cDNA first-strand cDNA synthesis kit (Roche, catalog #04897030001). Relative expression levels were determined by qPCR assays performed on a Roche LightCycler II using SYBR green master-mix (Roche, catalog #04887352001). Target gene quantification levels were normalized to the expression of standard housekeeper genes: TBP, ACTB, and/or GAPDH. For cells expressing inducible PR, the protocol was the same as above, except prior to ligand treatments, the cells were induced with AP21967 (10^−9 M) for 2 d.
For experiments using MEK inhibitors, BT-474 cells were plated in […] dishes at 5×10^5 cells/well. One day later, the cells were washed and serum starved in modified IMEM for 1d. These cells were pre-treated with the MEK inhibitor U0126 (5 uM, EMD Chemicals, catalog #662005) for 30 min R5020 (10^−8 M) and/or RU486 (10^−7 M) was then added to cell culture wells for 6 h before RNA/protein isolation and RT-qPCR/western blotting was performed, as described above.

[3] = tested on: PR Ser294 phosphorylation; assay: Western blotting for PR Ser294 phosphorylation in BT-474 cells; format: cell-based, human
Protocol: (§1) T47Dco parental cell lines were characterized previously (Horwitz et al., 1982). T47D cells stably expressing PR were created by molecular cloning of cDNAs encoding either WT, K388R, S294A, or K388R/S294A PR into a pIRES-neo3 expression vector (Clontech, catalog #631621), followed by transfection of vectors into T47D-Y cells (Sartorius et al., 1994) using FuGENE HD (Roche, catalog #04709713001). Single-cell clones were expanded under high G418 selection (500 ug/ml) and maintained in low G418 selection (200 ug/ml) (EMD Chemicals, catalog #345810). These cells were maintained in complete minimal essential medium (cMEM) supplemented with 5% fetal bovine serum (FBS), 1% non-essential amino acids (NEAA), 1% penicillin/streptomycin, 6 ng/ml insulin (CellGro, catalog #10-010-CV). T47D cells expressing inducible PR were described previously (Hagan et al., 2011). Inducible PR expression was achieved by adding AP21967 (10^−9 M, Ariad Pharmaceuticals, Cambridge, Mass.) to cell culture medium for a minimum treatment time of 2 d. MCF-7 cell lines expressing PR were created by transfection of pIRES-neo3 vectors containing cDNA inserts encoding either WT or KR PR into cells using FuGENE HD. Single-cell clones were expanded under high G418 selection and maintained in low G418 selection. […]

[4] = tested on: RGS2 expression in T47D cells expressing WT PR or KR PR; assay: RT-qPCR of PR target genes in T47D cells stably expressing WT or KR PR; format: cell-based, human; conditions: R5020 6 h
Protocol: as §1, with “2011).” for “2011). Inducible PR expression was achieved by adding AP21967 (10^−9 M, Ariad Pharmaceuticals, Cambridge, Mass.) to cell culture medium for a minimum treatment time of 2 d. MCF-7 cell lines expressing PR were created by transfection of pIRES-neo3 vectors containing cDNA inserts encoding either WT or KR PR into cells using FuGENE HD. Single-cell clones were expanded under high G418 selection and maintained in low G418 selection.”
For reverse transcription quantitative polymerase chain reaction (RT-qPCR) assays, 5×10^5 cells/well were plated in 6-well dishes, serum starved in modified IMEM for 1 day before treatments (see individual figures). […] Relative expression levels were determined by qPCR assays performed on a Roche LightCycler II using SYBR green master-mix (Roche, catalog #04887352001). Target gene quantification levels were normalized to the expression of standard housekeeper genes: TBP, ACTB, and/or GAPDH. […]

[5] = tested on: T47D cells expressing inducible PR (iWT, iKR); assay: MTT proliferation assay in T47D cells expressing inducible PR; format: cell-based, human; conditions: cells expressing iWT or iKR PRs vs un-induced or untreated counterparts; R5020
Protocol: Cell proliferation was measured using MTT assays (3-[4,5-dimethylthiazol-2-yl]-2,5-diphenyltetrazolium bromide, Sigma catalog #M2128). In 24-well plates, 1×10^4 cells/well were plated in cMEM (inducible PR expression was induced with AP21967 (10^−9 M) for 2 days), cells were washed and steroid starved in modified IMEM supplemented with 5% dextran-coated charcoal-treated (DCC) FBS for 1 day before the addition of R5020 (10^−8 M). At days 0, 2, 4, 6, cell proliferation was determined by adding 60 ul MTT (5 mg/ml) to each 0.5 ml cell culture well for 3 hours, medium was carefully removed and solublization solution (90% v/v DMSO/PBS) was added to lyse the cells. Lysate absorbance (650 and 570 nm) was measured using a plate reader. 650 nm measurements were subtracted from 570 nm measurements and sample means were normalized to day zero.

[6] = tested on: PR protein expression; assay: Western blotting for PR in doxorubicin-treated T47D cells expressing inducible PR (PARP cleavage assay); format: cell-based, human; conditions: doxorubicin 8 uM, 24 h
Protocol: Poly (ADP)-ribose polymerase 1 (PARP) cleavage assays were used to measure the level of apoptosis in cell cultures after treatment with cytotoxic concentrations of doxorubicin. T47D cells expressing inducible PR were plated in 10 cm dishes (2×10^6 cells/dish) in cMEM and induced with AP21967 (10^−9 M). Cells were washed, induced, and serum starved for 4 d. Cells were then treated with R5020 (10^−8M) for 6 h before adding doxorubicin (8 uM) to dishes for 24 h. Protein was harvested using standard RIPA lysis buffer, subjected to SDS-PAGE and western blotting using cleaved-PARP and PR antibodies. Beta-actin western blotting was performed for sample loading controls.

[7] = tested on: MAP1A and RGS2 mRNA in T47D cells stably expressing WT PR; assay: RT-qPCR with epidermal growth factor (EGF) treatment in T47D cells expressing WT PR; format: cell-based, human
Protocol: For RT-qPCR assays involving epidermal growth factor (EGF) treatment, cells were plated at 5×10^5 cells/well in 6-well dishes and serum starved for 2 days in modified IMEM. Cells were pre-treated with 100 ng/ml EGF (Sigma, catalog #E9644) before treatment with R5020 (10^−8 M).

[8] = pre-treatment with U0126 5 uM for 30 min

Molecule: CN(C)c1ccc([C@H]2C[C@]3(C)[C@@H](CC[C@]3(O)CCCO)[C@@H]3CCC4=CC(=O)CCC4=C32)cc1 [onapristone, (8S,11R,13R,14S,17S)-11-[4-(dimethylamino)phenyl]-17-hydroxy-17-(3-hydroxypropyl)-13-methyl-1,2,6,7,8,11,12,14,15,16-decahydrocyclopenta[a]phenanthren-3-one]
- number of the 29 KR>WT genes stimulated by onapristone treatment alone ([1]; KR cells, onapristone alone): none
- number of the 29 KR>WT genes stimulated by onapristone plus P4 treatment ([1]; KR cells, onapristone plus P4): 13 genes
- number of genes significantly differentially expressed, KR cells (onapristone plus progesterone) vs WT cells (ethanol) ([1]; KR treated with onapristone plus progesterone, WT treated with vehicle control): 5 genes
- expression of progesterone-regulated PR target genes ([1]; 6 h): did not cause these PR target genes to be upregulated; also recorded: do not stimulate gene expression
- number of genes significantly differentially expressed, WT cells (progesterone plus onapristone) vs WT cells (ethanol) ([1]; WT cells): only one gene
- number of genes significantly differentially expressed between KR and WT cells ([1]; both cell lines co-treated with progesterone plus the antiprogestin): 8 genes
- significant differential expression of the 15 biomarker genes between KR and WT cells ([1]; both cell lines co-treated with progesterone plus the antiprogestin, with the exception of one gene (CDH10)): completely annulled
- antagonist activity ([1]; cells expressing WT or KR PR): effective antagonist
- reversal of the effects of progesterone exposure ([1]; cells expressing activated PR (KR), onapristone in the presence of progesterone): can effectively reverse
- inhibition of expression of PR target genes ([1]; cells that express hyperactive PR (phosphorylated and deSUMOylated; KR)): can successfully inhibit
- reversal of transcriptional differences induced by progesterone ([1]; cells with a WT PR receptor, progesterone plus onapristone): almost completely reverse

Molecule: CC(=O)[C@H]1CC[C@H]2[C@@H]3CCC4=CC(=O)CC[C@]4(C)[C@H]3CC[C@]12C [progesterone]
- gene expression after progesterone (P4) treatment ([1]; both WT and KR cells, progesterone 10^−8 M, 6 h): significantly upregulated

Molecule: CCC(=O)[C@@]1(C)CC[C@H]2[C@@H]3CCC4=CC(=O)CCC4=C3CC[C@@]21C [R5020]
- ACOT6 expression ([2]; R5020 10^−8 M, 6 h): induced
- upregulation of CHN2 mRNA ([2]; R5020 10^−8 M, 6 h): 17 fold
- upregulation of RGS2 mRNA ([2]; R5020 10^−8 M, 6 h): 26 fold
- PR-B Ser294 phosphorylation ([3]; R5020 treatment): elevated
- RGS2 expression response to R5020 ([4]; T47D cells expressing KR PR): ~20 fold
- RGS2 expression response to R5020 ([4]; T47D cells expressing WT PR): ~2 fold
- cell growth [5]: grew faster

Molecule: C/C=C\[C@]1(O)CC[C@H]2[C@@H]3CCC4=CC(=O)CCC4=C3[C@@H](c3ccc(N(C)C)cc3)C[C@@]21C [aglepristone, (8S,11R,13S,14S,17R)-11-(4-dimethylaminophenyl)-17-hydroxy-13-methyl-17-[(Z)-prop-1-enyl]-1,2,6,7,8,11,12,14,15,16-decahydrocyclopenta[a]phenanthren-3-one]
- expression of progesterone-regulated PR target genes ([1]; 6 h): caused many PR target genes to become upregulated
- agonistic activity ([1]; cells expressing hyperactive / SUMO-deficient PR (KR)): substantial agonistic activity; also recorded: agonistic properties

Molecule: COc1cccc2c1C(=O)c1c(O)c3c(c(O)c1C2=O)C[C@@](O)(C(=O)CO)C[C@@H]3O[C@H]1C[C@H](N)[C@H](O)[C@H](C)O1 [Doxorubicin, doxorubicin]
- WT and KR PR protein expression [6]: reduced

Molecule: N#CC(=C(/N)Sc1ccccc1N)/C(C#N)=C(\N)Sc1ccccc1N [U0126]
- R5020-induced ACOT6 expression (control gene) ([2]; MEK kinase inhibition, U0126 5 uM): completely insensitive
- R5020-induced CHN2 and RGS2 expression [2, 8]: partially, but significantly, diminished
- R5020-induced PR Ser294 phosphorylation [3, 8]: blocked

Molecule: EGF: epidermal growth factor (Sigma) (NSDSECPLSHDGYCLHDGVCMYIEALDKYACNCVVGYIGERCQYRDLKWWELR; Epidermal growth factor; UniProt P01133 971-1023, looked up)
- MAP1A and RGS2 mRNA expression ([7]; EGF alone (100 ng/ml) over a 2-day time course): insensitive
- progestin stimulated mRNA expression of MAP1A and RGS2 ([7]; EGF pre-treatment (100 ng/ml) followed by R5020 10^−8 M): significantly augmented

— patent publication US10501800B2, “Breast cancer prognosis” (Regents of the University of Minnesota, priority 2012, dated 2019)
